Data on 16 compounds can be found in ChEMBL document CHEMBL3611980, “Design, synthesis of benzocoumarin-pyrimidine hybrids as novel class of antitubercular agents, their DNA cleavage and X-ray studies” (Eur J Med Chem, 2015).

Series [1] concerns Mycobacterium tuberculosis. The series can be described thus: Antitubercular activity against Mycobacterium tuberculosis H37Rv ATCC 27294 at 6.25 ug/ml after 5 days by microplate Alamar Blue assay. The following applies: H37Rv ATCC 27294, 120 h. The series is classed as functional. In general terms: Resazurin is reduced to fluorescent resorufin, in cell work by metabolically active cells.

In series [2] the test system is Mycobacterium tuberculosis. The series can be described thus: Antitubercular activity against Mycobacterium tuberculosis H37Rv ATCC 27294 after 5 days by microplate Alamar Blue assay. Type of series: functional. The following applies: H37Rv ATCC 27294, 120 h.
Series [3] in a line: Cytotoxicity against African green monkey Vero cells assessed as cell survival at 10 times MIC after 72 hrs by MTT assay. The settings on record: chlorocebus sabaeus, read-out: Survival. The series is classed as cell-based. For orientation: Formazan colour is commonly taken as a measure of viable cells.
The species entered for series [4] is Bos taurus. The series can be described thus: Induction of DNA cleavage in calf thymus DNA at 10 ug after 2 hrs by agarose gel electrophoresis method.

The term inhibition denotes how much of the control response was suppressed. The term MIC denotes the least concentration at which growth counts as inhibited.

≈ marks a conversion by molar mass, not a printed value. Calls of active or inactive are those of the source. The rule behind the calls is not given here.

`O=c1oc2ccc3ccccc3c2cc1-c1cc(-c2ccc([N+](=O)[O-])cc2)nc(Cc2ccc(F)cc2)n1` had an inhibition at 6.25 µg/mL in series [1] of 95%. Moreover, the lowest concentration to inhibit growth in series [2] (MIC) was 2.81 µg/mL (≈ 5.58 µM). The viability at 72 h, 10 times MIC in series [3] was 39%.

Take `O=c1oc2ccc3ccccc3c2cc1-c1cc(-c2ccc(Cl)cc2)nc(Cc2ccc(F)cc2)n1`: in series [1], testing at 6.25 µg/mL gave an inhibition of 96%. Further, in series [2], the MIC was found to be 1.21 µg/mL (≈ 2.45 µM). Also, in series [3], the viability at 72 h, 10 times MIC was 79%.

`O=c1oc2ccc3ccccc3c2cc1-c1cc(-c2ccccc2Br)nc(Cc2ccc(F)cc2)n1` registered an inhibition at 6.25 µg/mL in series [1] of 77%.

In series [1], `NNC(=O)c1ccncc1` [ISONIAZID] had an inhibition at 6.25 µg/mL of 100%. Besides, the MIC in series [2] was 0.02 µg/mL (≈ 0.146 µM). Further, the viability at 72 h, 10 times MIC in series [3] came out at 100%.

For the compound `COc1ccc(-c2cc(-c3cc4c(ccc5ccccc54)oc3=O)nc(Cc3ccc(F)cc3)n2)cc1`, the inhibition at 6.25 µg/mL in series [1] is 100%. In addition, the MIC in series [2] turned out to be 0.05 µg/mL (≈ 0.102 µM). The viability at 72 h, 10 times MIC in series [3] came to 97%. Besides, in series [4], the outcome was Active.

For `COc1cccc(-c2cc(-c3cc4c(ccc5ccccc54)oc3=O)nc(Cc3ccc(F)cc3)n2)c1`, the inhibition at 6.25 µg/mL in series [1] turned out to be 100%. In series [2], this compound yielded an MIC of 0.19 µg/mL (≈ 0.389 µM). Besides, the viability at 72 h, 10 times MIC in series [3] came to 93%.

`O=c1oc2ccc3ccccc3c2cc1-c1cc(-c2ccc(Br)cc2)nc(Cc2ccc(F)cc2)n1` showed an inhibition at 6.25 µg/mL in series [1] of 96%. For the same compound, in series [2], the MIC amounted to 1.56 µg/mL (≈ 2.9 µM). Besides, the viability at 72 h, 10 times MIC in series [3] came to 72%. The outcome in series [4] was Active.

On to `O=c1oc2ccc3ccccc3c2cc1-c1cc(-c2ccccc2[N+](=O)[O-])nc(Cc2ccc(F)cc2)n1`, for which at 6.25 µg/mL the inhibition in series [1] was 90%. In series [2], this compound displayed an MIC of 6.25 µg/mL (≈ 12.4 µM). In addition, the viability at 72 h, 10 times MIC in series [3] worked out at 17%.

Regarding `O=c1oc2ccc3ccccc3c2cc1-c1cc(-c2ccccc2Cl)nc(Cc2ccc(F)cc2)n1`, in series [1], the inhibition at 6.25 µg/mL came to 75%.

For the compound `Cc1ccc(-c2cc(-c3cc4c(ccc5ccccc54)oc3=O)nc(Cc3ccc(F)cc3)n2)cc1`, 6.25 µg/mL produced 81% inhibition in series [1].

Turning to `O=c1oc2ccc3ccccc3c2cc1-c1cc(-c2cccc([N+](=O)[O-])c2)nc(Cc2ccc(F)cc2)n1`, the inhibition at 6.25 µg/mL in series [1] was 91%. Besides, in series [2], 3.12 µg/mL (≈ 6.2 µM) was the least that counted as inhibitory (MIC). For the same compound, the viability at 72 h, 10 times MIC in series [3] stood at 26%. Besides, the outcome in series [4] was Active.

In turn, `O=c1oc2ccc3ccccc3c2cc1-c1cc(-c2cccc(Br)c2)nc(Cc2ccc(F)cc2)n1` yielded an inhibition at 6.25 µg/mL in series [1] of 93%. In series [2], this compound returned a minimum inhibitory concentration (MIC) of 2.81 µg/mL (≈ 5.23 µM). In series [3], the viability at 72 h, 10 times MIC came out at 64%.

Turning to `Cc1cccc(-c2cc(-c3cc4c(ccc5ccccc54)oc3=O)nc(Cc3ccc(F)cc3)n2)c1`, the inhibition at 6.25 µg/mL in series [1] came to 76%.

`Cc1ccccc1-c1cc(-c2cc3c(ccc4ccccc43)oc2=O)nc(Cc2ccc(F)cc2)n1` yielded an inhibition at 6.25 µg/mL in series [1] of 73%.

Regarding `O=c1oc2ccc3ccccc3c2cc1-c1cc(-c2cccc(Cl)c2)nc(Cc2ccc(F)cc2)n1`, the inhibition at 6.25 µg/mL in series [1] came to 93%. This compound also had an MIC in series [2] of 1.56 µg/mL (≈ 3.16 µM). In series [3], the viability at 72 h, 10 times MIC was determined as 75%. Moreover, the result in series [4] was Active.

`COc1ccccc1-c1cc(-c2cc3c(ccc4ccccc43)oc2=O)nc(Cc2ccc(F)cc2)n1` returned an inhibition at 6.25 µg/mL in series [1] of 98%. For the same compound, the MIC in series [2] stood at 0.78 µg/mL (≈ 1.6 µM). In addition, the viability at 72 h, 10 times MIC in series [3] was determined as 91%.
